Data reported in patent US10669275B2 (priority 2015, dated 2020).

How the values were obtained:
[1] = twelve weeks at 40° C. and 75% relative humidity
[2] = at about pH 8; cited from earlier work
[3] = 3 tons pressure 1 min; strong grinding dry or with a drop of water, ethanol or isopropanol; 100° C. for 30 minutes; 1 week 100% relative humidity at room temperature
Description: The analysis of was performed on ARL (SCINTAG) powder X-Ray diffractometer model X'TRA equipped with a solid stage detector.
Scanning parameters: range: 2-40 degrees two-theta; scan mode: continuous scan; step size: 0.05°, and a rate of 3 deg/min.

[4] = wettability by contact angle measurement; type: physicochemical; conditions: water drops (2 μL) on pellet pressed at 2 t*cm^−2
Description: The wettability of the below compounds was determined by contact angle measurement. For this purpose, the substances were pressed (2 t*cm^−2) to a pellet. On each pellet were placed three water drops (2 μL) on three individual measurement points and the contact angle was measured with the apparatus OCA40 (DataPhysics Instruments) on two sides of the drop.

C=CC(=O)N1CCC[C@@H](n2nc(-c3ccc(Oc4ccccc4)cc3)c3c(N)ncnc32)C1 [Ibrutinib Form E, 1-[(3R)-3[4-Amino-3-(4-phenoxyphenyl)-1H-pyrazolo[3,4-d]pyrimidin-1-yl]piperidin-1-yl]prop-2-en-lone]
solid form after storage (XRPD, FIG. 15) [1]: transformed into ibrutinib Form A

C=CC(=O)N1CCC[C@@H](n2nc(-c3ccc(Oc4ccccc4)cc3)c3c(N)ncnc32)C1 [Ibrutinib free base form A, 1-[(3R)-3[4-Amino-3-(4-phenoxyphenyl)-1H-pyrazolo[3,4-d]pyrimidin-1-yl]piperidin-1-yl]prop-2-en-lone]
observed aqueous solubility [2]: about 0.013 mg/ml

C=CC(=O)N1CCCC(n2nc(-c3ccc(Oc4ccccc4)cc3)c3c(N)ncnc32)C1.C=CC(=O)N1CCCC(n2nc(-c3ccc(Oc4ccccc4)cc3)c3c(N)ncnc32)C1.O=C(O)C=CC(=O)O (stereo not shown) [ibrutinib:fumaric acid]
XRPD pattern after stress-tests [3]: No change was observed in the XRPD pattern

C=CC(=O)N1CCC[C@@H](n2nc(-c3ccc(Oc4ccccc4)cc3)c3c(N)ncnc32)C1.C=CC(=O)N1CCC[C@@H](n2nc(-c3ccc(Oc4ccccc4)cc3)c3c(N)ncnc32)C1.O=C(O)CCC(=O)O [ibrutinib:succinic acid]
contact angle θ [4]: incapable of measurement*
